Laboratory results as given in patent US10766903B2 (ALMAC DISCOVERY LIMITED, priority 2016, dated 2020).
pIC50: −log10 of the molar value.

What follows are compounds tested against USP7 (Homo sapiens (Human), UniProt Q93009) (assay: USP7 fluorescence polarisation (FP) biochemical assay, ubiquitin-Lys-TAMRA substrate). Conditions: Table 3, effect of the R2 substituent; read-out: USP7 IC50.
Chain of USP7 (Q93009 whole entry): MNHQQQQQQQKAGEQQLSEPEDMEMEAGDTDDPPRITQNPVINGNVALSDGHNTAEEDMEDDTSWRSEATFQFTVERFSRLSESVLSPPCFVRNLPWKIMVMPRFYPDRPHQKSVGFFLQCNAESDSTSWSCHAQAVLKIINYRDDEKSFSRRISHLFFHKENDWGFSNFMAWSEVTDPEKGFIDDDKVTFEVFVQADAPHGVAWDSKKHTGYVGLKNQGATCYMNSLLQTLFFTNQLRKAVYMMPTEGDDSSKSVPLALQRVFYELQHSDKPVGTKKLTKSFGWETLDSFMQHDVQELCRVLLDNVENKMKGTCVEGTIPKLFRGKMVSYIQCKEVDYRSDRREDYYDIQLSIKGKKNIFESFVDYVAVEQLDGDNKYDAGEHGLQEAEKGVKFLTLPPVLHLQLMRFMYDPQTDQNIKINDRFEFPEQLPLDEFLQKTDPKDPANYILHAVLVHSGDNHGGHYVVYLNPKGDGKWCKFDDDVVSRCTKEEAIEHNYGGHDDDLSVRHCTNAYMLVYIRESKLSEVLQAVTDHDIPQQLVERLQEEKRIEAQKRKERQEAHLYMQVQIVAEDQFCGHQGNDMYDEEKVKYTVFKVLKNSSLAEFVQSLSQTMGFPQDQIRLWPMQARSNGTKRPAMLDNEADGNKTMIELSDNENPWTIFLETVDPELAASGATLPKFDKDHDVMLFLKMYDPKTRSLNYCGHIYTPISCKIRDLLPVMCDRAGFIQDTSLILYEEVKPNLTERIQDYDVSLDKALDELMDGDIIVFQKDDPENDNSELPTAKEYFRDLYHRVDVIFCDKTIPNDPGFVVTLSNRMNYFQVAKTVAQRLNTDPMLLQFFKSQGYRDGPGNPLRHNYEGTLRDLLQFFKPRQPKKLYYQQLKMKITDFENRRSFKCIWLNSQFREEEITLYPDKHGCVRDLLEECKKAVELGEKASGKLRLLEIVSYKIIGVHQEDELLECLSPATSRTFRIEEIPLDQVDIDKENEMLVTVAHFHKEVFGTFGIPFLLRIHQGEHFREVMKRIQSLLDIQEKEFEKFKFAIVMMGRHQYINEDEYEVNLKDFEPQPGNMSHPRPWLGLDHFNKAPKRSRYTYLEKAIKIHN
Method: Measurement of USP7 Inhibitory Activity
USP7 activity was monitored in a fluorescence polarisation (FP) homogeneous assay using the isopeptide ubiquitin-Lys-TAMRA substrate (U-558, Boston Biochem). Full-length USP7 was purchased from Boston Biochem (His6-USP7FL, E-519). Unless otherwise stated, all other reagents were purchased from Sigma-Aldrich. Enzymatic reactions were conducted in black flat-bottom polystyrene 384-well plates (Nunc) and 15 μL total volume. USP7 (2.5 nM, 5 μL) was incubated in assay buffer (50 mM HEPES (pH 7.2), 150 mM NaCl, 0.5 mM EDTA, 5 mM DTT, 0.05% BSA (w/v), 0.05% CHAPS) in the presence or absence of inhibitor (5 μl). Inhibitors were stored as 10 mM DMSO stocks in an inert environment (low humidity, dark, low oxygen, room temperature) using a Storage Pod System and serial dilutions were prepared in buffer just prior to the assay (from 200 to 0.1 μM, 8 dp curve). […] FP was measured every 15 min over a period of 1.5 h (within the linear range of the assay) using a Synergy 4 plate reader (BioTek) exciting at 530 nm and measuring the amount of parallel and perpendicular light at 575 nm. The FP signal was subsequently normalised to the control without compound present.
For `C[C@H](CC(=O)N1CCC(O)(Cn2cnc3cn(C)nc3c2=O)CC1)c1ccccc1` [Example 20, (R)-6-((4-Hydroxy-1-(3-phenylbutanoyl)piperidin-4-yl)methyl)-2-methyl-2H-pyrazolo[4,3-d]pyrimidin-7(6H)-one], the pIC50 was 5.52.

Same assay, conditions: Table 4, biochemical assay; average of at least duplicate experiments; read-out: USP7 IC50
`C[C@H](CC(=O)N1CCC(O)(Cn2cnc(Cl)c(N)c2=O)CC1)c1ccccc1` [Example 14, (R)-5-Amino-6-chloro-3-((4-hydroxy-1-(3-phenylbutanoyl)piperidin-4-yl)methyl)pyrimidin-4(3H)-one] was tested, and the pIC50 was 3.70 to 6.00. Work on `C[C@H](CC(=O)N1CCC(O)(Cn2cnc3c(ncn3C)c2=O)CC1)c1ccccc1` [Example 15, (R)-1-((4-Hydroxy-1-(3-phenylbutanoyl)piperidin-4-yl)methyl)-9-methyl-1H-purin-6(9H)-one] yielded a pIC50 of 3.70 to 6.00. `C[C@H](CC(=O)N1CCC(O)(Cn2cnc3c(nc(-c4ccccc4)n3C)c2=O)CC1)c1ccccc1` [Example 16, (R)-1-((4-Hydroxy-1-(3-phenylbutanoyl)piperidin-4-yl)methyl)-9-methyl-8-phenyl-1H-purin-6(9H)-one] showed a pIC50 of 3.70 to 6.00. In the case of `C[C@H](CC(=O)N1CCC(O)(Cn2cnc3c(ncn3-c3ccccc3)c2=O)CC1)c1ccccc1` [Example 17, (R)-1-((4-Hydroxy-1-(3-phenylbutanol)piperidin-4-yl)methyl)-9-phenyl-1H-purin-6(9H)-one], the pIC50 was > 6.60. Work on `C[C@H](CC(=O)N1CCC(O)(Cc2cnc3ccccn3c2=O)CC1)c1ccccc1` [Example 18, (R)-3-((4-Hydroxy-1-(3-phenylbutanoyl)piperidin-4-yl)methyl)-4H-pyrido[1,2-a]pyrimidin-4-one] yielded a pIC50 of 3.70 to 6.00. `C[C@H](CC(=O)N1CCC(O)(Cc2cnc3c(-c4ccccc4)cccn3c2=O)CC1)c1ccccc1` [Example 19, (R)-3-((4-Hydroxy-1-(3-phenylbutanoyl)piperidin-4-yl)methyl)-9-phenyl-4H-pyrido[1,2-a]pyrimidin-4-one] showed a pIC50 of 3.70 to 6.00. For `C[C@H](CC(=O)N1CCC(O)(Cn2cnc3cn(C)nc3c2=O)CC1)c1ccccc1` [Example 20, (R)-6-((4-Hydroxy-1-(3-phenylbutanoyl)piperidin-4-yl)methyl)-2-methyl-2H-pyrazolo[4,3-d]pyrimidin-7(6H)-one], the pIC50 was 3.70 to 6.00. Compound `C[C@H](CC(=O)N1CCC(O)(Cn2cnc3c(-c4ccncc4)n(C)nc3c2=O)CC1)c1ccccc1` [Example 26, (R)-6-((4-Hydroxy-1-(3-phenylbutanoyl)piperidin-4-yl)methyl)-2-methyl-3-(pyridin-4-yl)-2H-pyrazolo[4,3-d]pyrimidin-7(6H)-one] has a pIC50 of 6.00 to 6.60. `C[C@H](CC(=O)N1CCC(O)(Cn2cnc3c(C#CCO)n(C)nc3c2=O)CC1)c1ccccc1` [Example 31, (R)-6-((4-Hydroxy-1-(3-phenylbutanoyl)piperidin-4-yl)methyl)-3-(3-hydroxyprop-1-yn-1-yl)-2-methyl-2H-pyrazolo[4,3-d]pyrimidin-7(6H)-one] was tested, and the pIC50 was > 6.60. `CC(C)c1c2c(nn1C)C(=O)N(CC1(O)CCN(C(=O)C[C@@H](C)c3ccccc3)CC1)CN2` [Example 34, (R)-6-((4-Hydroxy-1-(3-phenylbutanoyl)piperidin-4-yl)methyl)-3-isopropyl-2-methyl-5,6-dihydro-2H-pyrazolo[4,3-d]pyrimidin-7(4H)-one] was tested, and the pIC50 was 3.70 to 6.00. `C=C(C)[C@H](C)CC(=O)N1CCC(O)(Cn2cnc3c(-c4ccccc4)n(C)nc3c2=O)CC1` [Example 35, (R)-6-((1-(3,4-Dimethylpent-4-enoyl)-4-hydroxypiperidin-4-yl)methyl)-2-methyl-3-phenyl-2H-pyrazolo[4,3-d]pyrimidin-7(6H)-one] was tested, and the pIC50 was 6.00 to 6.60. `C=C(C)[C@@H](CC(=O)N1CCC(O)(Cn2cnc3c(-c4ccccc4)n(C)nc3c2=O)CC1)C(F)(F)F` [Example 36, (R)-6-((4-Hydroxy-1-(4-methyl-3-(trifluoromethyl)pent-4-enoyl)piperidin-4-yl)methyl)-2-methyl-3-phenyl-2H-pyrazolo[4,3-d]pyrimidin-7(6H)-one] was tested, and the pIC50 was 3.70 to 6.00.

Same assay, conditions: USP7 IC50, Table 3, effect of the R2 substituent
With `C[C@H](CC(=O)N1CCC(O)(Cn2cnc3c(C(F)(F)F)n(C)nc3c2=O)CC1)c1ccccc1` [Example 23, (R)-6-((4-Hydroxy-1-(3-phenylbutanoyl)piperidin-4-yl)methyl)-2-methyl-3-(trifluoromethyl)-2H-pyrazolo[4,3-d]pyrimidin-7(6H)-one] the pIC50 was 6.22.

Same assay, conditions: USP7 IC50, Table 4, biochemical assay; average of at least duplicate experiments
In the case of `C[C@H](CC(=O)N1CCC(O)(Cn2cnc3c(C(F)(F)F)n(C)nc3c2=O)CC1)c1ccccc1` [Example 23, (R)-6-((4-Hydroxy-1-(3-phenylbutanoyl)piperidin-4-yl)methyl)-2-methyl-3-(trifluoromethyl)-2H-pyrazolo[4,3-d]pyrimidin-7(6H)-one], the pIC50 was 6.00 to 6.60.
